Laboratory results published in patent publication US20250275537A1, “CARBOXAMIDE APYRASE INHIBITORS” (Texas Crop Science, Inc., priority 2024, published 2025).

Columns and labels:
[1] = tested on: Brown Rust (Puccinia recondita) on wheat; experiment: Greenhouse crop test: Brown Rust on wheat in combination with commercial fungicides (Method 3); assay type: in vivo; details: evaluated at fourteen days
Experimental: In this method, exemplary compounds were evaluated for their ability to control Brown Rust (Puccinia recondita) on wheat, in a controlled greenhouse environment in combination with one of four fungicides, Amistar, Imtrex, Proline or Balaya. In these studies, JB Diego wheat plants were used. Seeds were sown in 9 cm diameter pots to a depth of 1 to 2 cm using Petersfield potting compost (75% medium grade peat, 12% screened sterilized loam, 3% medium grade vermiculite, 10% grit (5 mm screened, lime free), 1.5 kg PG mix per m3, lime to pH5.5-6.0 and wetting agent (Vitax Ultrawet 200 ml per m3) and germinated/grown at 23 C under a 16 h day/8 h night light regime. Plants were treated two to three weeks after sowing when they were at the BBCH 11 growth stage (first pair of true leaves (unifoliate) unfolded). Plants were inoculated with the Puccinia triticina (Brown rust on wheat plants) 24 hours after treatment. A track sprayer was used to treat the plants with the mixture of commercial fungicide and test compound using a water volume of 200 L/ha. […] Each plant was evaluated at fourteen days (once the disease symptoms were fully expressed) for % control of the disease. […] Also, each commercial fungicide was tested on its own as a part of each treatment, this being benchmark against which the experimental compounds were evaluated. […]

apyrase = experiment: Apyrase inhibition assay (Method 1); assay type: biochemical; details: inhibitor conc at 1 mM stock, 10 μl per well; 1 hr room temperature; rounded average of at least two assay results
Experimental: Apyrase inhibitors useful as enhancers of pesticidal activity are assessed using an in vitro assay. The method of Windsor, Bio Techniques 33:1024-1030 (November 2002) was used as follows
96 well plates were used for the assay: (Greiner bio-one: REF-655901-96 well, PS, F-bottom, Clear, Non-binding)
• Reaction Buffer: 60 mM Hepes, 3 mM MgCl2, 3 mM CaCl2 and 3 mM ATP (pH 6.5) • Development Buffer A: 2% aqueous ammonium molybdate • Development Buffer B: 11% ascorbic acid in 37.5% TCA in water • Stop buffer C: 2% trisodium citrate in 2% acetic acid solution in water • Add 100 μl of reaction buffer to each well. • Add 10 μl of DMSO (control) or inhibitor/compound or compounds such as N1915 or orthovanadate to each well. (use inhibitor conc at 1 mM; orthovanadate at 2 mM and N1915 at 1 mM) • Add 10 μl of apyrase (concentration based on optimization —Dilute 1 U/μl enzyme to different concentrations such as 0.1U, 0.05U, 0.0025, 0.001U, 0.0005U—to find a good range) • Incubate plate at room temperature for 1 hr • Mix development buffer A and B in the ratio of 1:1.5 (just before use). • Add 50 ul of A:B mix in each well (incubate for 2 mins) • Add 50 ul of C in each well • Measure/Read Absorbance of plate @630 nm
Inhibitory data for the apyrase assay described above are provided for selected compounds in Table 3. In Table 3, D indicates inhibition of <10%.
With reference to Table 3, percent inhibition of apyrase is reported as the rounded average of at least two assay results.

[2] = tested on: Amaranthus retroflexus (pigweed); experiment: Enhancement of herbicide activity: pre-emergence Amaranthus kill with metribuzin (Method 4); assay type: in vivo; details: enhancer at 100 g/ha; for enhancement of metribuzin herbicidal activity: at seven and fourteen days
Excerpt: Small amounts of acetone were used to aid solubility. The pots were watered immediately after sowing and treatment and then allowed to stand in a glasshouse. Assessment of kill was made seven and fourteen days after treatment. The test included four replicates for each treatment and the control.

[3] = tested on: strain of Zymoseptoria tritici with a reduced susceptibility to strobilurin fungicides; experiment: In vitro assessment of combination activity with fungicides (Method 2), Z. tritici strobilurin-reduced-susceptibility strain; assay type: cell-based; details: any fungicide (azoxystrobin, fluxapyroxad, desthio prothioconazole)
Experimental: (§1) Selected compounds are assessed in combination with fungicides against a range of commercially important plant pathogenic fungi.
(§2) The test is conducted as follows. A fungicide is applied to a fungal plant pathogen at a rate slightly below that at which it gave any control, in combination with a suitable dose of the test compound. The test compound is recorded as active if control of the pathogen is observed.
(§3) In more detail, the test is conducted as follows. For each combination of fungicide, pathogen and test compound, the following wells are used. Well 1 contains a fungal pathogen growing on agar, and a fungicide at a rate just below that at which it gives any control of the pathogen. Well 2 is the same as Well 1, except that the test compound is also added at Rate 1. Well 3 is the same as Well 2, except that the test compound is added at Rate 2, where Rate 2 was higher than Rate 1. Finally, as a benchmark. Well 4 is the same as Well 1, except that it contains the fungicide at a higher rate, at which it gives partial control of the pathogen. Each of the Wells 1 to 4 are run in duplicate, giving a total of 8 wells for each combination of fungicide, pathogen and test compound. For each well, after a suitable period of incubation, a visual assessment of the % control of the pathogen by the fungicide is made. […]

Microdochium nivale = experiment: In vitro assessment of combination activity with fungicides (Method 2), Microdochium nivale; assay type: cell-based; details: in combination with azoxystrobin; visual % control on agar
Experimental: as §1, §2, §3

[4] = tested on: strain of Zymoseptoria tritici with a reduced susceptibility to SDHI fungicides; experiment: In vitro assessment of combination activity with fungicides (Method 2), Z. tritici SDHI-reduced-susceptibility strain; assay type: cell-based; details: any fungicide (azoxystrobin, fluxapyroxad, desthio prothioconazole)
Experimental: as §1, §2, §3

[5] = Assessed 7 DAT, metribuzin rate 50 g/ha
[6] = Assessed 7 DAT, metribuzin rate 100 g/ha
[7] = Assessed 7 DAT, metribuzin rate 200 g/ha
[8] = Assessed 14 DAT, metribuzin rate 50 g/ha
[9] = Assessed 14 DAT, metribuzin rate 100 g/ha
[10] = Assessed 14 DAT, metribuzin rate 200 g/ha

Q: With O=C(Nc1ccccc1)c1ccc(C(=O)Nc2ccccc2)cc1 [Compound I-3, N^1,N^4-diphenylterephthalamide] as the compound, how does the “additional Brown Rust control in combination with Balaya over Balaya alone” value ([1]; Balaya 0.25 L/ha) read?
A: measurable additional Brown Rust control

Q: What about the “% Inhibition of Apyrase” value (apyrase) of the same compound?
A: A (A indicates inhibition above 30%)

Q: Which results are given for O=C(Nc1ccccc1Cl)c1ccccc1C(=O)Nc1ccccc1Cl [Compound I-14, N^1,N^2-bis(2-chloropheny)phthalamide]?
A: % Inhibition of Apyrase (apyrase): A (A indicates inhibition above 30%); Pre-Emergence Amaranthus Kill Percentage [2, 5]: 21.3%; Pre-Emergence Amaranthus Kill Percentage [2, 6]: 93.9%; Pre-Emergence Amaranthus Kill Percentage [2, 7]: 98.0%; Pre-Emergence Amaranthus Kill Percentage [2, 8]: 32.7%; Pre-Emergence Amaranthus Kill Percentage [2, 9]: 94.0%; Pre-Emergence Amaranthus Kill Percentage [2, 10]: 100.0%; enhancement of metribuzin herbicidal activity [2]: significant enhancement

Q: For Nc1ccnc(CNC(=O)c2ccc(C(=O)Nc3ccccc3)cc2)n1 [Compound I-55, N^1-((4-aminopyrimidin-2-yl)methyl)-N^4-phenylterephthalamide], which “% Inhibition of Apyrase” value (apyrase) is on record?
A: D (D indicates inhibition of <10%)

Q: For CNC(=O)c1cccc(C(=O)Nc2ccc(NS(=O)(=O)C(F)(F)F)cc2)c1 [Compound I-56, N^1-methyl-N^3-(4-((trifluoromethyl)sulfonamido)phenyl)iso-phthalamide], which “% Inhibition of Apyrase” value (apyrase) is on record?
A: D (D indicates inhibition of <10%)

Q: How did the “% Inhibition of Apyrase” value (apyrase) turn out when CCCNC(=O)c1cccc(C(=O)Nc2cccc3cn[nH]c23)c1 [Compound I-57, N^1-(1H-indazol-7-yl)-N^3-propylisophthalamide] was run?
A: D (D indicates inhibition of <10%)

Q: With C#Cc1cccc(NC(=O)c2ccccc2C(=O)N2CCN(C)CC2)c1 [Compound I-58, N-(3-ethynylphenyl)-2-(4-methylpiperazine-1-carbonyl)benzamide] as the compound, how does the “% Inhibition of Apyrase” value (apyrase) read?
A: D (D indicates inhibition of <10%)

Q: Cn1c(=O)c2ccccc2c(=O)n1Cc1nnc(C2CC2)o1 [Compound I-59, 2-((5-cyclopropyl-1,3,4-oxadiazol-2-yl)methyl)-3-methyl-2,3-dihydrophthalazine-1,4-dione] was tested. Which “% Inhibition of Apyrase” value (apyrase) did it give?
A: D (D indicates inhibition of <10%)

Q: With O=C1CCCc2ccc(NC(=O)c3ccc4c(c3)C(=O)NCCO4)cc2N1 [Compound I-60, 5-oxo-N-(2-oxo-2,3,4,5-tetrahydro-1H-benzo[b]azepin-8-yl)-2,3,4,5-tetrahydrobenzo[f][1,4]oxazepine-7-carboxamide] as the compound, how does the “% Inhibition of Apyrase” value (apyrase) read?
A: D (D indicates inhibition of <10%)

Q: O=C(Nc1ccccc1)c1ccc(C(=O)Nc2cnn(CC3CCCO3)c2)cc1 (centres unmarked) [Compound I-61, N^1-phenyl-N^4-(1-((tetrahydrofuran-2-yl)methyl)-1H-pyrazol-4-yl)terephthalamide] was tested. Which “% Inhibition of Apyrase” value (apyrase) did it give?
A: D (D indicates inhibition of <10%)

Q: With O=C(Nc1ccc(OC(F)(F)C(F)F)cc1)c1cccc(C(=O)Nc2ccc(OC(F)(F)C(F)F)cc2)c1 [Compound I-62, N^1,N^3-bis(4-(1,1,2,2-tetrafluoroethoxy)phenyl)isophthalamide] as the compound, how does the “% Inhibition of Apyrase” value (apyrase) read?
A: A (A indicates inhibition above 30%)

Q: For COCc1cc(F)ccc1NC(=O)c1cccc(C(=O)Nc2ccc(F)cc2COC)c1 [Compound I-63, N^1,N^3-bis(4-fluoro-2-(methoxymethyl)phenyl)isophthalamide], which “% Inhibition of Apyrase” value (apyrase) is on record?
A: A (A indicates inhibition above 30%)

Q: And the “Pre-Emergence Amaranthus Kill Percentage” value [2, 5]?
A: 2.0%

Q: What about the “Pre-Emergence Amaranthus Kill Percentage” value [2, 6] of the same compound?
A: 34.0%

Q: And the “Pre-Emergence Amaranthus Kill Percentage” value [2, 7]?
A: 96.3%

Q: And the “Pre-Emergence Amaranthus Kill Percentage” value [2, 8]?
A: 4.1%

Q: What about the “Pre-Emergence Amaranthus Kill Percentage” value [2, 9] of the same compound?
A: 34.0%

Q: And the “Pre-Emergence Amaranthus Kill Percentage” value [2, 10]?
A: 98.2%

Q: What about the “enhancement of metribuzin herbicidal activity” value [2] of the same compound?
A: significant enhancement

Q: Which “% Inhibition of Apyrase” value (apyrase) does the source give for Cc1cc2c(cc1NC(=O)c1cccc(C(=O)Nc3ccccc3)c1)OCO2 [Compound I-64, N^1-(6-methylbenzo[d][1,3]dioxol-5-yl)-N^3-phenylisophthalamide] here?
A: B (B indicates inhibition of from 20% to 30%)

Q: Which “% Inhibition of Apyrase” value (apyrase) does the source give for CN(C(=O)c1cccc(C(=O)Nc2cc(Br)ccc2F)c1)c1ccccc1 [Compound I-65, N^1-(5-bromo-2-fluorophenyl)-N3-methyl-N^3-phenylisophthalamide] here?
A: D (D indicates inhibition of <10%)

Q: How did the “additional Brown Rust disease control in combination with Amistar over Amistar alone” value ([1]; Amistar 0.04 L/ha) turn out when O=C(c1ccc(C(=O)N2CCc3ccccc32)cc1)N1CCc2ccccc21 [Compound I-66, 1,4-phenylenebis(indolin-1-ylmethanone)] was run?
A: greater than 20%

Q: What about the “% Inhibition of Apyrase” value (apyrase) of the same compound?
A: A (A indicates inhibition above 30%)

Q: How did the “% Inhibition of Apyrase” value (apyrase) turn out when N#Cc1cccc(NC(=O)c2ccc(C(=O)Nc3cccc(C#N)c3)cc2)c1 [Compound I-67, N^1,N^4-bis(3-cyanophenyl)terephthalamide] was run?
A: A (A indicates inhibition above 30%)

Q: With O=C(Nc1cccc([N+](=O)[O-])c1)c1cccc(S(=O)(=O)Nc2ccc(Br)cc2)c1 [Roux Compound 13] as the compound, how does the “enhancement of fungicide activity (combination activity)” value (shortened to “enhancement of fungicide activity”) [3] read?
A: failing to enhance activity of any fungicide

Q: What about the “enhancement of fungicide activity” value (Microdochium nivale) of the same compound?
A: enhancing the activity of azoxystrobin

Q: And the “enhancement of fungicide activity” value [4]?
A: failing to enhance activity of any fungicide

Q: With CSc1nnc(C(C)(C)C)c(=O)n1N [metribuzin, reference compound] as the compound, how does the “Pre-Emergence Amaranthus Kill Percentage” value [2, 5] read?
A: 0.0%
